From the NIST ThermoML archive (doi:10.1016/j.jct.2013.10.001)
“And” between values parts separate entries of the source, which are not always exact repeats. Equal entries are not always repeated. ± gives the expanded uncertainty stated by the source.

Conditions: Liquid

CC(C)CCCC(C)CCCC(C)CCCCC(C)CCCC(C)CCCC(C)C (configuration not stated) [2,6,10,15,19,23-hexamethyltetracosane]
viscosity
Conditions | Falling or rolling sphere viscometry | quartz resonator viscometer
293.15 K, 10220 kPa | – | 45.8 ± 1.9 mPa·s and 46.2 ± 1.9 mPa·s
293.15 K, 20250 kPa | – | 57.9 ± 2.3 mPa·s and 58.5 ± 2.4 mPa·s
293.15 K, 30090 kPa | – | 70.8 ± 2.9 mPa·s and 71.5 ± 2.9 mPa·s
293.15 K, 40100 kPa | – | 87 ± 3.5 mPa·s and 87.9 ± 3.6 mPa·s
293.15 K, 50070 kPa | – | 108.1 ± 4.4 mPa·s and 109.2 ± 4.4 mPa·s
293.15 K, 60060 kPa | – | 130 ± 5.3 mPa·s and 131.3 ± 5.3 mPa·s
293.15 K, 71000 kPa | – | 160.4 ± 6.5 mPa·s and 162.1 ± 6.6 mPa·s
293.15 K, 80600 kPa | – | 180.6 ± 7.3 mPa·s and 182.4 ± 7.4 mPa·s
303.15 K, 11300 kPa | – | 28.6 ± 1.2 mPa·s and 28.5 ± 1.2 mPa·s
303.15 K, 19900 kPa | – | 34.1 ± 1.4 mPa·s and 34 ± 1.4 mPa·s
303.15 K, 20000 kPa | 34.78 ± 1.3 mPa·s | –
303.15 K, 31400 kPa | – | 43.9 ± 1.8 mPa·s and 43.8 ± 1.8 mPa·s
303.15 K, 40000 kPa | 51.64 ± 1.8 mPa·s | –
303.15 K, 40600 kPa | – | 53 ± 2.2 mPa·s and 52.9 ± 2.2 mPa·s
303.15 K, 50900 kPa | – | 64.7 ± 2.6 mPa·s and 64.6 ± 2.6 mPa·s
303.15 K, 60000 kPa | 74.96 ± 2.8 mPa·s | 78.3 ± 3.2 mPa·s and 78.1 ± 3.2 mPa·s
303.15 K, 71700 kPa | – | 94.7 ± 3.9 mPa·s and 94.5 ± 3.8 mPa·s
303.15 K, 80000 kPa | 107.09 ± 4.6 mPa·s | 107.8 ± 4.4 mPa·s and 107.5 ± 4.4 mPa·s
303.15 K, 100000 kPa | 146.47 ± 7.1 mPa·s | –
303.15 K, 120000 kPa | 210.53 ± 12 mPa·s | –
303.15 K, 140000 kPa | 305.4 ± 20 mPa·s | –
303.15 K, 160000 kPa | 422.48 ± 31 mPa·s | –
313.15 K, 10000 kPa | 16.8 ± 0.9 mPa·s | –
313.15 K, 10110 kPa | – | 18.2 ± 0.7 mPa·s and 18.3 ± 0.7 mPa·s
313.15 K, 15000 kPa | 18.9 ± 1 mPa·s | –
313.15 K, 20170 kPa | – | 22.4 ± 0.9 mPa·s and 22.6 ± 0.9 mPa·s
313.15 K, 25000 kPa | 23.8 ± 1.2 mPa·s | –
313.15 K, 29620 kPa | – | 26.6 ± 1.1 mPa·s and 26.9 ± 1.1 mPa·s
313.15 K, 40550 kPa | – | 32.5 ± 1.3 mPa·s and 32.8 ± 1.3 mPa·s
313.15 K, 49650 kPa | – | 38.5 ± 1.6 mPa·s and 38.8 ± 1.6 mPa·s
313.15 K, 50000 kPa | 39.2 ± 2 mPa·s and 36.3 ± 2 mPa·s | –
313.15 K, 60500 kPa | – | 47 ± 1.9 mPa·s and 47.4 ± 1.9 mPa·s
313.15 K, 70400 kPa | – | 55.9 ± 2.3 mPa·s and 56.4 ± 2.3 mPa·s
313.15 K, 75000 kPa | 61.2 ± 3.2 mPa·s and 59.6 ± 3.1 mPa·s | –
313.15 K, 80670 kPa | – | 66.4 ± 2.7 mPa·s and 66.9 ± 2.7 mPa·s
313.15 K, 100000 kPa | 92.3 ± 5.1 mPa·s and 91.3 ± 5 mPa·s | –
313.15 K, 125000 kPa | 136.4 ± 8.2 mPa·s and 134.8 ± 8.1 mPa·s | –
313.15 K, 150000 kPa | 199 ± 13 mPa·s and 194.1 ± 13 mPa·s | –
313.15 K, 175000 kPa | 275.3 ± 20 mPa·s | –
313.15 K, 200000 kPa | 386.2 ± 32 mPa·s | –
313.15 K, 225000 kPa | 537.7 ± 48 mPa·s | –
313.15 K, 250000 kPa | 744.7 ± 73 mPa·s | –
323.15 K, 10250 kPa | – | 12.8 ± 0.5 mPa·s and 12.7 ± 0.5 mPa·s
323.15 K, 20000 kPa | 15.77 ± 0.57 mPa·s | –
323.15 K, 20340 kPa | – | 15.5 ± 0.6 mPa·s
323.15 K, 30170 kPa | – | 18.4 ± 0.7 mPa·s
323.15 K, 40000 kPa | 22.36 ± 0.81 mPa·s | –
323.15 K, 40160 kPa | – | 21.8 ± 0.9 mPa·s
323.15 K, 50130 kPa | – | 25.8 ± 1 mPa·s
323.15 K, 60000 kPa | 31.17 ± 1.1 mPa·s | –
323.15 K, 60110 kPa | – | 30.8 ± 1.2 mPa·s and 30.8 ± 1.3 mPa·s
323.15 K, 70120 kPa | – | 36.2 ± 1.5 mPa·s
323.15 K, 80000 kPa | 42.71 ± 1.6 mPa·s | –
323.15 K, 80060 kPa | – | 43 ± 1.7 mPa·s
323.15 K, 100000 kPa | 57.75 ± 2.1 mPa·s | –
323.15 K, 120000 kPa | 77.38 ± 2.9 mPa·s | –
323.15 K, 140000 kPa | 102.35 ± 4.3 mPa·s | –
323.15 K, 160000 kPa | 135.1 ± 6.3 mPa·s | –
323.15 K, 180000 kPa | 175.94 ± 9.2 mPa·s | –
323.15 K, 200000 kPa | 228.18 ± 13 mPa·s | –
